# Results as given in patent US6274146A, “Biologically active phytogenous proteoglycan and a method of making thereof” (priority 1999, dated 2001).
# Test system: 1-st type of simple virus herpes, Kleiman strain
# Experiment: Herpetic meningoencephalitis model in mice
# Type: in vivo, white mice
# Conditions: for Lethality rate / ML (mean lifespan) / Protective effect (difference between survival rates in experimental and control groups) / Survival rate: introduced 3, 24, 48, 72 and 96 h after infecting
# Description: Proteoglycan efficiency was estimated by means of herpetic menigeoencephalitis model in mice. The 1-st type of simple virus herpes of Kleiman strained was used. The virus infectuous titer in Vero cells culture was of 6.5-7.01 1 g CPA50^1 /0.1 ml while by intracerebral or intraperitonneal introduction in white mice mass of 7-8 g it was equal to 5.5-6.0 1 g LD50 /0.03 ml. The strain is characterized by increased neurovirulence. The maximum lesion of cells of fibroblasts in hen embryons or of Vero cells (75-100%) was already observed in 18-20 h after infecting. To reproduce herpetic meningoencephalitis in mice the latter were infected with Kleiman virus intraperitonneally in volume of 0.2 ml of both 10 and 100 LD50 doses. The treatment results were estimated as a mean lifespan (ML) and the protective effect which is difference between survival rates in experimental and control groups.
# *-proteoglycan was introduced 5 days before infecting
# **-proteoglycan was introduced 5 days until infecting and 3 h after the
# ** Acyclovir was introduced in 3, 24, 48, 72 and 96 h after the infecting.
compound,measurement,setting,value
Nc1nc2c(ncn2COCCO)c(=O)[nH]1 [Acyclovir],Lethality rate,10 LD50 virus dose,68%
same,ML (mean lifespan),10 LD50 virus dose,7.81 ± 1.9 days
same,Protective effect (difference between survival rates in experimental and control groups),10 LD50 virus dose,15%
same,Survival rate,10 LD50 virus dose,32%
same,Effect observed,100 LD50 virus dose,no effect was observed
same,Lethality rate,100 LD50 virus dose,100%
same,ML (mean lifespan),100 LD50 virus dose,5.3 ± 1.8 days
same,Protective effect (difference between survival rates in experimental and control groups),100 LD50 virus dose,0%
same,Survival rate,100 LD50 virus dose,0%
